In the supplement of paper PMC10307832:

What was measured:
Experiment in all cases: relative viability (nuclei count vs DMSO), 5 days (fraction); higher = more cells survive
[1] = compound: CC[C@@H](C)CNCC(=O)N1CCC2=C([C@@H]1COC3=CC=CC(=C3)C)C=CS2 [RU-SKI 43] + Nc1ncn([C@H]2C[C@H](O)[C@@H](CO)O2)c(=O)n1 [Decitabine] (partner 2 µM)
How it was run: (§1)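 Each reported value is a median over duplicate plates. It expresses relative viability: treated-well nuclei count divided by vehicle-well nuclei count. Lung cancer cell lines in 1536-well plates were dosed by pin tool a day after seeding, alone with one drug or with a fixed anchor-drug dose plus five library-drug doses (not always all listed) in √10 steps, and nuclei were counted after 5 days.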

[2] = compound: CCc1c2c(nc3ccc(OC(=O)N4CCC(N5CCCCC5)CC4)cc13)-c1cc3c(c(=O)n1C2)COC(=O)[C@]3(O)CC [Irinotecan] + O=C(c1cc(Cc2n[nH]c(=O)c3ccccc23)ccc1F)N1CCN(C(=O)C2CC2)CC1 [Olaparib] (partner 8 µM)
How it was run: as §1

[3] = compound: Cn1cc(-c2cnc3ccc4ccc(CS(=O)(=O)NCc5ccccn5)cc4c(=O)c3c2)cn1 [MK-8033] + C[C@@H](Oc1cc(-c2cnn(C3CCNCC3)c2)cnc1N)c1c(Cl)ccc(F)c1Cl [Crizotinib] (partner 1 µM)
How it was run: as §1

[4] = compound: Cn1cc(-c2cnc3ccc4ccc(CS(=O)(=O)NCc5ccccn5)cc4c(=O)c3c2)cn1 [MK-8033] + C[C@]1(O)C[C@@H](c2nc(-c3ccc4ccc(-c5ccccc5)nc4c3)c3c(N)nccn32)C1 [Linsitinib] (partner 1 µM)
How it was run: as §1

Cell Line	relative viability ([1]; first compound 0.1 µM)	relative viability ([1]; first compound 0.3162 µM)	relative viability ([1]; first compound 1 µM)	relative viability ([1]; first compound 3.162 µM)	relative viability ([1]; first compound 10 µM)	relative viability ([2]; first compound 0.6325 µM)	relative viability ([2]; first compound 2 µM)	relative viability ([2]; first compound 6.325 µM)	relative viability ([2]; first compound 20 µM)	relative viability ([3]; first compound 0.02 µM)	relative viability ([3]; first compound 0.06325 µM)	relative viability ([3]; first compound 0.2 µM)	relative viability ([3]; first compound 0.6325 µM)	relative viability ([3]; first compound 2 µM)	relative viability ([4]; first compound 0.02 µM)	relative viability ([4]; first compound 0.06325 µM)	relative viability ([4]; first compound 0.2 µM)	relative viability ([4]; first compound 0.6325 µM)	relative viability ([4]; first compound 2 µM)
NCI-H1437	0.591	0.582	0.601	0.56	0.557	0.434	0.429	0.316	0.272	1.04	0.723	0.545	0.877	0.918	0.976	1.01	0.94	1.01	0.917
NCI-H1651	0.624	0.593	0.7	0.593	0.589	0.164	0.142	0.107	0.117	0.852	0.832	0.846	0.938	0.862	1.07	0.835	0.824	1.03	0.856
NCI-H1666	0.739	0.794	0.721	0.643	0.665	0.672	0.726	0.654	0.671	0.909	0.942	0.982	0.999	1.01	0.872	0.754	0.83	0.66	0.81
NCI-H1734	0.522	0.544	0.598	0.487	0.473	–	0.184	0.143	0.179	0.682	0.547	0.645	0.508	0.595	0.904	0.769	0.852	0.93	0.858
NCI-H1755	0.714	0.798	0.758	0.715	0.755	0.482	0.358	0.372	0.42	0.811	0.782	0.878	0.847	0.803	0.996	0.993	0.954	0.988	0.946
NCI-H1792	0.392	0.667	0.682	0.728	0.561	0.332	0.327	0.198	0.298	1.02	0.959	0.982	0.828	1.03	0.468	0.528	0.527	0.454	0.523
NCI-H1915	0.272	0.257	0.285	0.25	0.255	0.151	0.186	0.144	0.115	0.935	0.896	0.802	0.885	0.911	1.12	1.07	1.09	1.08	1.15
NCI-H1944	0.449	0.4	0.423	0.473	0.442	0.287	0.221	0.198	0.182	1.12	–	1.02	1.06	1.11	1.2	–	1.12	1.23	1.37
NCI-H1975	0.346	0.377	0.439	0.381	0.276	0.797	0.935	0.323	0.193	0.896	0.924	0.934	1.06	0.952	0.925	0.957	0.873	0.956	0.905
NCI-H1993	0.547	0.578	0.517	1.1	0.643	–	0.601	0.552	0.585	0.734	0.658	0.836	0.668	0.819	0.773	0.766	0.73	0.751	0.687
NCI-H2009	0.374	0.332	0.364	0.376	0.283	0.508	0.287	0.194	0.128	1.08	1.07	0.579	1.11	1.03	1.21	1.12	1.07	1.21	1.11
NCI-H2023	0.211	0.254	0.22	0.246	0.237	0.302	0.225	0.14	0.073	0.674	0.559	0.554	0.554	0.586	0.651	0.533	0.473	0.536	0.415
NCI-H2085	0.509	0.497	0.572	0.603	0.509	0.583	0.433	0.423	0.408	0.873	0.804	0.867	0.801	0.977	0.831	0.797	0.837	0.943	0.825
NCI-H2087	0.324	0.283	0.281	0.247	0.238	0.175	0.196	0.154	0.173	0.957	0.746	0.883	0.989	0.836	1.15	0.973	0.832	0.91	0.915
NCI-H2126	0.591	0.574	0.523	0.615	0.554	0.388	0.387	0.303	0.27	1.04	0.927	0.973	0.976	0.951	0.727	0.659	0.673	0.686	0.715
NCI-H2347	0.604	0.542	0.651	0.617	0.636	0.471	0.491	0.379	0.555	0.752	0.667	0.665	0.618	0.823	0.884	0.855	0.958	0.977	0.895
NCI-H2405	0.704	0.778	0.681	0.808	0.688	–	0.495	0.256	0.0989	0.809	0.783	0.842	0.871	0.811	0.882	0.91	0.783	0.831	0.957
NCI-H3122	0.365	0.478	0.469	0.413	0.391	0.217	0.201	0.16	0.14	0.335	0.249	0.311	0.272	0.286	1.01	1.04	0.993	1.04	1.02
PC-3 [JPC-3]	0.789	0.894	0.804	0.852	0.749	0.766	0.908	0.448	0.221	0.963	–	0.902	0.981	0.936	0.947	–	0.863	0.961	0.987
PC-14	0.248	0.219	0.225	0.218	0.203	0.129	0.163	0.167	0.123	0.932	0.81	0.875	0.889	0.817	0.978	0.843	0.859	0.939	0.858
RERF-LC-KJ	0.782	0.832	0.69	0.681	0.58	0.806	0.56	0.38	0.243	0.867	0.849	0.769	0.825	0.79	0.885	0.902	0.836	0.908	0.938
SK-LU-1	0.571	0.684	0.612	0.593	0.535	0.312	0.265	0.29	0.218	0.873	0.874	0.8	0.835	1.02	1.14	1.14	0.951	1.05	0.878
SK-MES-1	0.313	0.385	0.391	0.403	0.389	0.364	0.293	0.325	0.255	0.96	0.959	0.919	1.01	0.992	1.06	0.995	1.04	1.09	1.09
SW 1573	0.483	0.594	0.51	0.532	0.433	0.267	0.239	0.157	0.121	0.798	0.743	0.752	0.416	0.695	0.799	0.721	0.764	0.749	0.684
